Results taken from EP0306597B2, “Antiviral nucleosides” (THE WELLCOME FOUNDATION LIMITED, priority 1985, dated 1986).

Key:
AIDV [1] = format: cell-based
HSVI = conditions: De Clerq et al.; cited from earlier work
vaccinia = conditions: De Clerq et al.; cited from earlier work
AIDV [2] = format: cell-based; conditions: same cell-line transformed by HTLV-I and super-infected with AIDV
[3] = test system: varicella zoster virus (VZV); conditions: De Clerq et al.; cited from earlier work
[4] = test system: Friend Leukaemia Virus (FLV); conditions: cited from earlier work
[5] = test system: Rauscher Murine Leukaemia Virus; assay: Mouse model of retrovirus-induced malignancy (splenomegaly); format: in vivo
AIDV [6] = assay: AIDV infection of U937 cells, PHA-stimulated white blood cells and cultured peripheral blood lymphocytes; format: cell-based
HTLV-I = assay: In vitro replication of HTLV-I; format: cell-based; conditions: concentrations as low as
AIDV [7] = assay: AIDV infection of H9 human lymphoblastoid cell-line; format: cell-based; conditions: concentrations as low as; up to 20 hours after infection
[8] = target: T1, AIDV reverse transcriptase (Human immunodeficiency virus type 1 group M subtype B, UniProt P04585); assay: Inhibition of purified AIDV reverse transcriptase; format: biochemical; conditions: purified enzyme; for activity of AIDV reverse transcriptase: in vitro
T1 construct: purified AIDV reverse transcriptase
Description: This property is both unusual and valuable for the treatment and prophylaxis of CNS infections caused by human retroviruses.

human DNA polymerase = assay: Effect on human DNA polymerase activity; format: biochemical; conditions: in vitro
[9] = test system: avian myeloblastosis virus and Moloney murine leukaemia virus; assay: Chain termination of reverse transcription; format: biochemical; conditions: evidenced by effect on avian myeloblastosis virus and Moloney murine leukaemia virus

| Compound | decrease in cells (AIDV [1]) | conversion in vivo by cellular enzymes | activity against HSVI (HSVI) | activity against vaccinia (vaccinia) | Cytopathic effects (AIDV [2]) | activity against varicella zoster virus (VZV) [3] | cellular toxicity [4] | formation of A-type particles of FLV complex ([4]; in vitro, Krieg et al.) | release of C-type particles of FLV complex ([4]; in vitro, Krieg et al.) | splenomegaly caused by intravenously administered Rauscher Murine Leukaemia Virus [5] | AIDV infection of PHA-stimulated white blood cells (AIDV [6]; PHA-stimulated white blood cells) | AIDV infection of U937 human lymphoblastoid cells (AIDV [6]; U937 human lymphoblastoid cells) | AIDV infection of cultured peripheral blood lymphocytes (AIDV [6]; cultured peripheral blood lymphocytes) | concentration inhibiting the in vitro replication of HTLV-I (HTLV-I) [µg/mL] | concentration effectively preventing infection of the H9 human lymphoblastoid cell-line by AIDV (AIDV [7]) [µg/mL] | mechanism of inhibition of AIDV reverse transcriptase [8] | activity of AIDV reverse transcriptase [8] | activity of AIDV reverse transcriptase ([8]; […]) | effect on human DNA polymerase activity (human DNA polymerase) | chain termination in the reverse transcription of AIDV [9] |
| --- | --- | --- | --- | --- | --- | --- | --- | --- | --- | --- | --- | --- | --- | --- | --- | --- | --- | --- | --- | --- |
| Cc1cn([C@H]2C[C@H](N=[N+]=[N-])[C@@H](CO)O2)c(=O)[nH]c1=O | no decrease | converted in vivo, by the action of cellular enzymes into the 5'-monophosphate | no appreciable activity | no appreciable activity | completely blocked | no appreciable activity | lack of cellular toxicity | increased | affected | prevented | prevented at similarly low concentrations | prevented at similarly low concentrations | prevented at similarly low concentrations | 0.8 | 0.013 | – | – | – | – | – |
| Cc1cn([C@H]2C[C@H](N=[N+]=[N-])[C@@H](COP(=O)(O)OP(=O)(O)OP(=O)(O)O)O2)c(=O)[nH]c1=O [3'-Azido-3'-deoxythymidine-5'-triphosphate] | – | – | – | – | – | – | – | – | – | – | – | – | – | – | – | competitive inhibition | blocked | inhibits | negligible effect | effective chain terminator |
| Cc1cn([C@H]2C[C@H](N=[N+]=[N-])[C@@H](COP(=O)(O)O)O2)c(=O)[nH]c1=O [Example 13] | – | further phosphorylated by other enzymes to form the triphosphate via the diphosphate | – | – | – | – | – | – | – | – | – | – | – | – | – | – | – | – | – | – |
